This experiment relates to MDA-MB-468 breast. Nature of the experiment: inhibition of tumour cell growth, NCI panel, 48 h.

Molecules are shown by their SMILES. Several values for one entry are separate records, joined by “and”; a condition that tells them apart may be missing. Equal values may be shown once.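 The compound was tested at five concentrations on cells cultured in 96-well plates, with a 48-hour exposure period. At the GI50, growth is halved. TGI denotes the concentration required for complete inhibition of growth.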 A value given as a limit tells only on which side of the number the result lay.

On to `Nc1ccc(C(OC(=O)c2cc3ccccc3c(Cc3c(O)c(C(=O)OC(c4ccc(N)cc4)(c4ccc(N)cc4)c4ccc(N)cc4)cc4ccccc34)c2O)(c2ccc(N)cc2)c2ccc(N)cc2)cc1`, for which the GI50 is 252 nM and the TGI was 2.13 µM.

On to `CN1C[C@@H]2Cn3c(c(C4=C(c5cn(C)c6ccccc56)C(=O)NC4=O)c4ccccc43)C[C@H]2C1`, for which the GI50 was 4040 nM and 3060 nM; the TGI was 9.12 µM and 6.64 µM.

For the molecule `Cc1cc(C)c(S(=O)(=O)N(CCc2cccc(Br)c2)Cc2ccc(-c3cccc(S(C)(=O)=O)c3)cc2)c(C)c1`, the GI50 is above 100000 nM and the TGI is above 100 µM.

Consider `COc1ccc(-c2ccc(-c3ccc(C(=N)N)cn3)o2)cc1Cl`, for which the GI50 is 1840 nM and the TGI was 3.51 µM.

As for `Cc1ncc(C(=O)Nc2ccc(CN3CCN(C)CC3)c(C(F)(F)F)c2)cc1C#Cc1c(N)ncc2ccccc12`, the GI50 was 577 nM and the TGI is 1.15 µM.

In the case of `COc1cc(NC(=O)NCc2ccco2)ccc1-c1ccc(NC(=O)NCc2ccco2)cc1OC`, the GI50 is 1820 nM and the TGI came out at 4.61 µM.

For the molecule `CCNNC(=O)[C@@H]1[C@H](c2cc(OC)c(OC)c(OC)c2)c2cc3c(cc2[C@H](O)[C@H]1CO)OCO3`, the GI50 was 281 nM.

As to `COC(=O)[C@]12CC[C@@H](C)[C@H](C)[C@@H]1C1=CC[C@@H]3[C@@]4(C)C(C=O)=C[C@@](C)(COS(C)(=O)=O)C4[C@H](O)C[C@@]3(C)[C@]1(C)CC2` (some centres not stated), the GI50 was 2080 nM and the TGI was 4.1 µM.

Consider `N#C/C(=C\c1c(-c2ccccc2)[nH]c2ccccc12)C(=O)c1ccccc1`, for which the GI50 is 5560 nM and the TGI was above 100 µM.

For `CCN(CC)CCn1c2ccc(OC)cc2c2sc3cc(OC)ccc3c(=O)c21`, the GI50 is 1560 nM and the TGI was 3.21 µM.

As to `NC(=O)c1ccccc1NC(=O)c1ccccc1Cl`, the GI50 is above 100000 nM and the TGI was above 100 µM.

With `COc1c(Cl)ccc2c(-c3nc4cc(Cl)c(F)cc4s3)cc(=O)oc12`, the GI50 was 4890 nM and the TGI came to 34.4 µM.

As for `CC(C)C[C@H](NC(=O)CCn1ccc2ncccc2c1=O)B(O)O`, the GI50 is 2350 nM and the TGI was determined as 14.4 µM.

Regarding `Nc1nccc2c1ncn2C1OC(CO)C(O)C1O` (configuration not stated), the GI50 is above 100000 nM and the TGI is above 100 µM.

As to `CCOC(=O)C(=CN1CCNC1=S)C(=O)OCC`, the GI50 is above 100000 nM and the TGI is above 100 µM.

Consider `CC(C)C[C@H](NC(=O)[C@@H](NC(=O)c1cccc(-c2ccccc2)n1)[C@@H](C)O)B(O)O`, for which the GI50 was 2.44 nM and the TGI was 0.00685 µM.

With `Cn1cnc2c(F)c(Nc3ccc(Br)cc3F)c(C(=O)NOCCO)cc21`, the GI50 was 26900 nM and the TGI is above 83.4 µM.

In the case of `COc1ccc(-c2cc(-c3cccc(NS(C)(=O)=O)c3)nc(N)c2C#N)cc1`, the GI50 is 1350 nM and the TGI is 6.64 µM.

In the case of `O=C(COc1cccc(/C=C2\Oc3ccc4ccccc4c3C2=O)c1)c1ccc(Cl)cc1`, the GI50 is 9620 nM and the TGI is 43.3 µM.

With `CSc1ccc(SC2c3ccc(C)cc3Oc3nc(N)c(C#N)c(N)c32)cc1` (configuration not stated), the GI50 is 1740 nM and the TGI is 3.81 µM.

In the case of `COC(=O)[C@H](C)NC(=O)[C@@H](OC)[C@@H]1Cc2cc3cc(OC4CC(OC5CC(O)C(O)C(C)O5)C(O)C(C)O4)c(C)c(O)c3c(O)c2C(=O)[C@H]1OC1CC(OC2CC(OC3CC(C)(O)C(O)C(C)O3)C(O)C(C)O2)C(O)C(C)O1` (some centres not stated), the GI50 is 112 nM and the TGI came out at 1.07 µM.

As for `Clc1ccc(CNc2nccc(-c3cnn4ncccc34)n2)cc1`, the GI50 was 5620 nM and the TGI stood at 12.7 µM.

With `COc1ccc(Cn2cc3c(c2-c2cc(OC)c(OC)c(OC)c2)CCc2cnoc2-3)cc1N`, the GI50 was 25.1 nM and the TGI is 0.0735 µM.

In the case of `Cc1ccc(Nc2cc(C)nc(NCCCNc3ccnc4cc(Cl)ccc34)n2)cc1`, the GI50 was 1430 nM and the TGI turned out to be 2.92 µM.

On to `COc1cc(C2CC(=O)Nc3c2ccc2ccccc32)cc(Br)c1OC` (configuration not stated), for which the GI50 is 285 nM and the TGI stood at 0.969 µM.

As for `CC(=O)Nc1ccc(NC(=O)Nc2cccc(-c3nc(-c4ccc(NC(=O)c5cccnc5)cc4Cl)no3)c2)cc1C(F)(F)F`, the GI50 was 234 nM and the TGI stood at 0.758 µM.

Regarding `CCCCCCCCCCCCCCCCCCOc1ccccc1CC(=O)NCC[N+](C)(C)C`, the GI50 was 2470 nM and the TGI worked out at 6.28 µM.

As to `C[C@@H](COCCC(=O)N1CCN(c2ncc(C(F)(F)F)cn2)CC1)Nc1cn[nH]c(=O)c1C(F)(F)F`, the GI50 is 17900 nM and the TGI was above 100 µM.

As to `O=C(N/N=C/c1ccc(Cl)cc1Cl)c1ccc2nc(-c3ccc(Cl)cc3)[nH]c2c1`, the GI50 is 1640 nM and the TGI worked out at 3.23 µM.

Turning to `COc1cccc(C2SC(C)C(=O)N2CCc2cccs2)c1` (configuration not stated), the GI50 was 2250 nM and the TGI came to 7.32 µM.

`Cc1cc(N(CCCNc2ccnc3cc(Cl)ccc23)Cc2ccc3c(c2)OCO3)nc(N2CCCCC2)n1`: the GI50 is 1950 nM and the TGI stood at 4.67 µM.

Turning to `COc1cc(F)c(/C=C/c2cc(/C=C/c3cc(OC)c(OC)cc3F)n(-c3cc(F)cc(F)c3)n2)cc1OC`, the GI50 is 2390 nM and the TGI was 5.72 µM.

As for `COc1cccc(CCC(=O)c2cc3c(N)c(C(=O)Nc4cccc(Cl)c4C)sc3nc2C)c1`, the GI50 was 288 nM and the TGI stood at 2.82 µM.

Turning to `CCOc1nccc2c1nc(-c1nonc1N)n2CC`, the GI50 was above 25000 nM and the TGI is above 25 µM.

The values above are taken from PubChem BioAssay (NCI).
